The values that follow come from paper PMC9014415, “Repositioning of a Diaminothiazole Series Confirmed to Target the Cyclin-Dependent Kinase CRK12 for Use in the Treatment of African Animal Trypanosomiasis” (Journal of Medicinal Chemistry, 2022).

The test system of data set [1] is T. congolense. Kind of data set: NMRI mouse efficacy model, T. congolense. Format: in vivo, Trypanosoma congolense. As to conditions: mice; 10 mg/kg SC once daily for 4 days. As for the experimental part:
(§1) 3. In vivo efficacy studies
(§2) The T. congolense (IL3000) and T. vivax (ILRAD V34) cell lines7, 8, both originating from Kenya, were used in the following in vivo mouse studies. For studies in cattle, either Trypanosoma congolense (savannah) KONT 2/133, 224) or T. vivax STIB 719 was used.
(§3) 3.1 Mouse efficacy studies for T. brucei brucei.
(§4) Mouse efficacy studies for T. brucei brucei were carried out as previously detailed.9 3.2 NMRI mouse efficacy studies for T. congolense and T. vivax.
(§5) Mouse models of infections were carried out using standardized protocols. Briefly, 1 mL samples of cryopreserved T. congolense, or T. vivax-infected blood harvested directly from an infected mouse, were diluted with Hanks Balanced Salt Solution plus 20 mM glucose (HBSS+G) to 5 x 10^4 trypomastigotes/mL (5 x 105 for T. vivax). Female mice (NMRI) were inoculated IP on day 0 with 0.2 mL/animal (equivalent to ~ 1 x 104 T. congolense or ~ 1 x 105 T. vivax per animal). The level of parasitaemia was inspected microscopically on day 3 using tail blood smears, counting 20 high powered fields (× 400 magnification). For untreated or treated animals whose tail smears exceeded 50 parasites/field, precise parasite levels were established using a Neubauer haemocytometer; mice with a parasite burden over 1 x 108 were promptly and humanely terminated (T. congolense only, from our experience the mice will not survive for a further 24 h). Alternatively, in the case of T. vivax-infected mice the immune system will bring the infection to a sub-lethal level (below limit of detection) […]
(§6) followed by cycles of high and low parasitaemia. Eventually mice infected with T. vivax succumb to the infection between 30 – 60 days post-infection.
(§7) Suppression of parasitaemia - mouse
(§8) On day 3 post-infection, animals were randomly allocated to groups, with 3 mice/group. Infected animals were dosed with one of the following: diaminazene diaceturate IP. – 40 mg/kg once only as a control (early-stage trypanocide used to clear the parasites in the systemic circulation and in tissues other than CNS), compound 1 (SC) at 3, 10, 30 and 50 mg free base/kg twice and once daily for 4 d or a single dose, or compound 2 (SC) at 3 and 10 mg free base /kg once daily for 4 d, once daily for 2 d or a single dose, one group of 3 mice acted as an untreated control group. The dose solutions were prepared daily, using 5% DMSO: 40% PEG400: 55% MilliQ H2O for test compounds and 10% DMSO: 90% peanut oil for standard drugs. Alternatively, compound 2 was delivered for 48 h via SC implanted ALZET osmotic pumps (6, 12, 25 and 50 mg free base/mL, vehicle: 50% DMSO […]
(§9) and 50% deionized water).
(§10) Response to treatment was determined by monitoring parasitaemia twice a week until day 21.
(§11) After day 21, the mice were checked once a week until 63 d post-treatment. Mice surviving to the end of the experiment, and with blood smears clear of parasites, were considered cured. […]
(§12) The parasites were obtained from a donor calf. This isolate is resistant to diminazene (20 mg/kg) and isometamidium (1 mg/kg) in cattle, and diminazene (7 mg/kg) and isometamidium (>1 mg/kg) in mice. Calves were parasitaemic by study day 6. Calves (n = 5) were treated with compound 1 (5 mg/kg, SC, twice 12 h apart) on study

Data set [2] can be described thus: Aqueous kinetic solubility by laser nephelometry. Format: physicochemical. Particulars: MilliQ water with 2.5% DMSO, read-out: Sol (kinetic solubility); for solubility kinetic: range 250-12 µM. As for the experimental part: 2. Drug metabolism and pharmacokinetics
The aqueous solubility of test compounds was measured using laser nephelometry. Compounds were subject to serial dilution from 10 mM to 0.5 mM in DMSO. Aliquot were then mixed with MilliQ water to obtain an aqueous dilution plate with a final concentration range of 250 – 12 µM. The final DMSO concentration in these plates was 2.5%. Triplicate aliquots were transferred to a flat-bottomed polystyrene plate which was immediately read on a NEPHELOstar nephelometer (BMG Lab Technologies). The laser scatter caused by insoluble particulates (relative nephelometry units, RNU) was plotted against compound concentration using a segmental regression fit, with the point of inflection being quoted as the compound’s aqueous solubility (µM).
Solubility of compound 1 was measured by a different method. Here, compound 1 was dissolved in DMSO to give a 10 mM solution and solubility test samples prepared by adding a volume (5 µL) of this stock solution to phosphate buffered saline, pH 7.4 (195 µL, Sigma-Aldrich). This

A short description of data set [3]: Bovine liver microsome stability. Format: in vitro ADME. As to conditions: intrinsic clearance. The protocol: 2.2 Microsomal stability studies […]
(b) Bovine liver microsome stability. Test compounds (0.5 µM) were incubated with 0.5 mg/mL bovine liver microsomes (Xenotech LLC TM) in 50 mM potassium phosphate buffer, pH7.4 and the reaction initiated upon addition of excess NADPH (8 mg/mL in 50 mM potassium phosphate buffer, pH7.4).
Aliquots (50 µL) of the incubation mixture were taken at time zero, 3, 6, 9, 15 and 30 min then mixed with acetonitrile (100 µL) to stop the reaction. An internal standard was added to all samples, prior to centrifugation (10 min, 1,665 g, RT) to sediment precipitated protein. Reaction plates were then sealed prior to UPLCMSMS analysis using a Quattro Premier XE (Waters corporation, USA).
XLfit (IDBS, UK) was used to calculate the exponential decay and consequently the rate constant (k) from the ratio of peak area of test compound to internal standard at each timepoint. The rate of intrinsic clearance (CLi) of each test compound was then calculated using the following […]
CLi(mL/min/g liver) = k x V x microsomal protein yield
Where V (mL/mg protein) is the incubation volume/ mg protein added and microsomal protein yield is taken as 52.5 mg protein/ g of liver. Verapamil (0.5 µM) was used as a positive control to confirm acceptable assay performance. […]

The test system of data set [4] is T. vivax. Kind of data set: NMRI mouse efficacy model, T. vivax. Format: in vivo, Trypanosoma vivax. As to conditions: mice; 10 mg/kg SC once daily for 4 days. As for the experimental part: as §1, §2, §3, §4, §5, §6, §7, §8, §9, §10, §11, §12
Another data set concerns L6 cells. Kind of data set: Cytotoxicity assay, rat skeletal myoblasts (L6). The format is cell-based. The protocol:
1.4 Cytotoxicity assays – Rat skeletal myoblasts (L6)
The cytotoxicity of test compounds was evaluated using a rat skeletal myoblast (L6) cell line, as previously described3, but with minor modifications. Cells were grown in RPMI media supplemented with 10% (v/v) fetal calf serum. L6 cells at a seeding density of 2 x 10^4 cells/mL were incubated in microtiter plates overnight at 37 °C and 5 % CO2 until adherent. The following day, test compounds were added to the plates (3-fold serial dilutions), prior to incubation for 69 h. Following incubation, 10 µL of Resazurin (12.5 mg in 100 mL phosphate buffered saline, Aldrich) was added to each well and the plates were incubated for a further 3 h. The plates were read using a SpectraMax (Gemini XS) fluorescence reader at an excitation wavelength of 536 nm and an emission wavelength of 588 nm. EC50 values were determined using SOFTmax Pro 5.2 analysis software. All experiments were conducted as technical replicates, with at least three biological replicates. […]

The test system of data set [5] is T. congolense. Kind of data set: In vitro drug sensitivity assay, T. congolense (IL3000). Format: cell-based. As to conditions: Trypanosoma congolense; IL3000 strain. The protocol:
1.2 In vitro drug sensitivity assays - Trypanosoma congolense
EC50 values for test compounds against T. congolense (IL3000 strain) were conducted as previously described3 with minor modifications.4 Briefly, trypanosome cell densities were determined using a CASY cell counter (Schärfe) and diluted to a seeding density of 2 x 105 trypanosomes/mL. BSF trypanosomes were grown in HMI-9 (IMDM) media supplemented with 20% (v/v) bovine serum.1 Test compounds were resuspended to a final concentration of 10 mg/mL in DMSO. Assays plates were incubated at 34 °C with 5 % CO2, for a total of 69 h, prior to addition of 10 µL of Resazurin (12.5 mg in 100 mL phosphate buffered saline, Aldrich) into each well, followed by a further 3 h incubation. Absorbance was read using a SpectraMax (Gemini XS) fluorescence reader at an excitation wavelength of 536 nm and an emission wavelength of 588 nm. EC50 values were determined using SOFTmax Pro 5.2 analysis software. All experiments were conducted with technical duplicates, and at least three biological replicates. […]

The subject of data set [6] is T. vivax. Kind of data set: Ex vivo drug sensitivity assay, T. vivax (STIB 719/ILRAD 560). The format is cell-based. As to conditions: Trypanosoma vivax. The protocol:
Test compounds were resuspended to a final concentration of 10 mg/mL in DMSO. […]
1.3 Ex vivo drug sensitivity assays - Trypanosoma vivax
Since T. vivax cannot be cultured axenically, BSF trypanosomes were harvested from an infected mouse with high parasitemia via cardiac puncture and used directly in ex vivo assays. EC50 values were determined against T, vivax (STIB 719/ ILRAD 560) as previously described3, with minor modifications. Briefly, cell densities were determined using a Neubauer chamber and then diluted to a seeding density of 4 x 105 trypanosomes / mL. BSF trypanosomes were cultured in HMI-9 (IMDM) media containing 20% (v/v) bovine serum. Assay plates were incubated at 37 °C with 5 % CO2, for a total of 45 h prior to addition 10 µL of Resazurin (12.5 mg in 100 mL phosphate buffered saline, Aldrich) into each well, followed by a further 3 h incubation. Absorbance was read using a SpectraMax (Gemini XS) fluorescence reader at an excitation wavelength of 536 nm and an emission wavelength of 588 nm. EC50 values were determined using SOFTmax Pro 5.2 analysis […]
software. […]

As to `CC(C)CS(=O)(=O)N[C@H]1CC[C@H](Nc2nc(N)c(C(=O)c3c(F)cc(CN4CCCC4)cc3F)s2)CC1.Cl` [Compound 5, N-((trans)-4-((-4-Amino-5-(2,6-difluoro-4-(pyrrolidin-1-ylmethyl)benzoyl)thiazol-2-yl)amino)cyclohexyl)-2-methyl-propane-1-sulfonamide Hydrochloride], the “Efficacy at 10 mg/kg SC for 4 days, T. congo” value (shortened to “Efficacy … T. congo”) with T. congolense [1] is “Partial cure (1/3)”. Moreover, the kinetic solubility at 24 h in data set [2] (pH 7.4, range 250-12 µM) was determined as 220 µM. Further, in data set [3], the “Bovine Microsome Cli (BLM: bovine microsomal clearance)” value (shortened to “Bovine Microsome Cli”) is under 0.5 mL/min/g. The “Efficacy at 10 mg/kg SC for 4 days, T. vivax” value (“Efficacy … T. vivax” below) in the data set on T. vivax [4] is “Full cure (3/3)”.
Consider `CC(C)CS(=O)(=O)N[C@H]1CC[C@H](Nc2nc(N)c(C(=O)c3c(F)cc(CN4CCOCC4)cc3F)s2)CC1.Cl` [Compound 4, N-((trans)-4-((4-Amino-5-(2,6-difluoro-4-((4-morpholinomethyl)benzoyl)thiazol-2-yl)amino)cyclohexyl))-2-methylpropane-1-sulfonamide Hydrochloride], for which the “Efficacy … T. congo” value in the data set on T. congolense [1] is reported as “No cure (0/3)”. In data set [3], the “Bovine Microsome Cli” value is listed as 1 mL/min/g. For the same compound, the “Efficacy … T. vivax” value in the data set with T. vivax [4] is “No cure (0/3)”.
Regarding `CC(C)CS(=O)(=O)N[C@H]1CC[C@H](Nc2nc(N)c(C(=O)c3c(F)cc(CN4CCN(C)CC4)cc3F)s2)CC1.Cl` [Compound 3, N-((trans)-4-((4-Amino-5-(2,6-difluoro-4-((4-methylpiperazin-1-yl)methyl)benzoyl)thiazol-2-yl)amino)cyclohexyl)-2-methylpropane-1-sulfonamide Hydrochloride], the “Efficacy … T. congo” value with T. congolense [1] is recorded as “Partial cure (1/3)”. Further, the kinetic solubility in data set [2] is over 250 µM. The “Bovine Microsome Cli” value in data set [3] was under 0.5 mL/min/g. In the data set on T. vivax [4], the “Efficacy … T. vivax” value was “No cure (0/3)”.
Take `CC(C)CS(=O)(=O)N[C@H]1CC[C@H](Nc2nc(N)c(C(=O)c3c(F)cc(CN)cc3F)s2)CC1.Cl` [Compound 9, N-((trans)-4-((4-Amino-5-(4-(aminomethyl)-2,6-difluorobenzoyl)thiazol-2-yl)amino)cyclohexyl)-2-methylpropane-1-sulfonamide Hydrochloride]: the kinetic solubility in data set [2] was over 250 µM. For the same compound, the EC50 in the data set with L6 cells was 5900 nM; in the data set with T. congolense [5] it was 8.3 nM; in the data set on T. vivax [6], 0.5 nM. In addition, the “Bovine Microsome Cli” value in data set [3] is under 0.5 mL/min/g.
In the same order, the values of `CC(C)CS(=O)(=O)N[C@H]1CC[C@H](Nc2nc(N)c(C(=O)c3c(F)cc(CN4CCC4)cc3F)s2)CC1.Cl` [Compound 6, N-(((trans)-4-((4-Amino-5-(4-azetidin-1-ylmethyl)-2,6-difluorobenzoyl)thiazol-2-yl)amino)cyclohexyl)-2-methylpropane-1-sulfonamide Hydrochloride] are over 250 µM, 5300 nM, 2.5 nM, 6.9 nM and 1.3 mL/min/g.
In the same order, the values of `CC(C)CS(=O)(=O)N[C@H]1CC[C@H](Nc2nc(N)c(C(=O)c3c(F)cc(CCN(C)C)cc3F)s2)CC1.Cl` [Compound 7, N-(((trans)-4-((4-Amino-5-(4-(2-dimethylamino)ethyl)-2,6-difluorobenzoyl)thiazol-2-yl)amino)cyclohexyl)-2-methylpropane-1-sulfonamide Hydrochloride] are over 250 µM, 18000 nM, 16 nM, 1 nM and 0.8 mL/min/g.
